In patent US7601726B2, “Substituted pyrazolo[3,4-d]pyrimidines as p38 MAP kinase inhibitors” (Roche Palo Alto LLC, priority 2005, dated 2009):

Target: T1, p38 MAP kinase (Homo sapiens, UniProt Q16539)
T1 construct: made in house; host or cells: E. coli (co-expressed with SEK-1 and MEKK)
Test: p38 (MAP) kinase in vitro assay (transfer of γ-phosphate from γ-33P-ATP to Myelin Basic Protein)
Format: biochemical
Settings: phosphorylated recombinant p38 MAP kinase, MBP substrate, 30° C.
Experimental: This example illustrates a p38 (MAP) kinase in vitro assay useful for evaluating the compounds of the invention.
The p38 MAP kinase inhibitory activity of compounds of this invention in vitro was determined by measuring the transfer of the γ-phosphate from γ-^33P-ATP by p-38 kinase to Myelin Basic Protein (MBP), using a minor modification of the method described in Ahn, et al., J. Biol. Chem. 266:4220-4227 (1991).
The phosphorylated form of the recombinant p38 MAP kinase was co-expressed with SEK-1 and MEKK in E. Coli (see, Khokhlatchev, et al., J. Biol. Chem. 272:11057-11062 (1997)) and then purified by affinity chromatography using a Nickel column.
The phosphorylated p38 MAP kinase was diluted in kinase buffer (20 mM 3-(N-morpholino)propanesulfonic acid, pH 7.2, 25 mM β-glycerol phosphate, 5 mM ethylene glycol-bis(beta-aminoethyl ether)-N,N,N′,N′-tetraacetic acid, 1 mM sodium ortho-vanadate, 1 mM dithiothreitol, 40 mM magnesium chloride). Test compound dissolved in DMSO or only DMSO (control) was added and the samples were incubated for 10 min at 30° C. The kinase reaction was initiated by the addition of a substrate cocktail containing MBP and γ-^33P-ATP. […] The phosphorylated MBP was then separated from the residual γ-^33P-ATP using a phosphocellulose membrane (Millipore, Bedfrod, Mass.) and quantitated using a scintillation counter (Packard, Meriden, Conn.).

T1 sequence (Q16539 whole entry): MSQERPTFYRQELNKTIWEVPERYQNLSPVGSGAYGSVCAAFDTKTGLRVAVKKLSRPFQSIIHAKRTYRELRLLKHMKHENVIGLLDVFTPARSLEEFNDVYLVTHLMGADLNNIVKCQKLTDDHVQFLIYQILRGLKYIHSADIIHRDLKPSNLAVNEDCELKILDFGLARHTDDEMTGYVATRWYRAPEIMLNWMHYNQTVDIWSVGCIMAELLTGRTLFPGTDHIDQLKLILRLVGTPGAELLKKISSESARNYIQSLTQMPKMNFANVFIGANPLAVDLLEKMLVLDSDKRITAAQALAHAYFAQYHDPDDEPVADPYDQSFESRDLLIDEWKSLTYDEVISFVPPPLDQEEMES

| IC50 [nM] | Structure (SMILES) |
| --- | --- |
| ~4 | OC[C@H](O)CNc1cc(Oc2ccc(F)cc2F)cc2[nH]nc(-c3ccccc3Cl)c12 (stereo in doubt) [3-[3-(2-Chloro-phenyl)-6-(2,4-difluoro-phenoxy)-1H-indazol-4-ylamino]-propane-1,2-diol] |
| ~16 | O=C(Nc1n[nH]c2nc(Oc3ccc(F)cc3F)ncc12)c1ccccc1Br [2-Bromo-N-[6-(2,4-difluoro-phenoxy)-1H-pyrazolo[3,4-d]pyrimidin-3-yl]-benzamide] |

Tested on: not given
Test: not given
Settings: not given

| Structure (SMILES) | melting point [°C] |
| --- | --- |
| CC(C)Nc1n[nH]c2nc(Oc3ccc(F)cc3F)ncc12 [Table 1 #1, [6-(2,4-Difluoro-phenoxy)-1H-pyrazolo[3,4-d]pyrimidin-3-yl]-isopropyl-amine] | 211.3 to 214.4 |
| O=C(Nc1n[nH]c2nc(Oc3ccc(F)cc3F)ncc12)OCc1ccccc1 [Table 1 #42, [6-(2,4-Difluoro-phenoxy)-1H-pyrazolo[3,4-d]pyrimidin-3-yl]-carbamic acid benzyl ester] | 270.1 to 272 |

Continued, values first:

| melting point [°C] | Structure (SMILES) |
| --- | --- |
| 226 to 226.9 | CCS(=O)(=O)Nc1n[nH]c2nc(Oc3ccc(F)cc3F)ncc12 [Table 1 #14, Ethanesulfonic acid [6-(2,4-difluoro-phenoxy)-1H-pyrazolo[3,4-d]pyrimidin-3-yl]-amide] |
| 93.3 to 94.6 | OC[C@H](O)COc1cc(Oc2ccc(F)cc2F)cc2[nH]nc(-c3ccccc3Cl)c12 (stereo in doubt) [Table 2 #1, 3-[3-(2-Chloro-phenyl)-6-(2,4-difluoro-phenoxy)-1H-indazol-4-yloxy]-propane-1,2-diol] |
| 206.3 to 207.51 | O=C(Nc1n[nH]c2nc(Oc3ccc(F)cc3F)ncc12)C1CCCC1 [Table 1 #38, Cyclopentanecarboxylic acid [6-(2,4-difluoro-phenoxy)-1H-pyrazolo[3,4-d]pyrimidin-3-yl]-amide] |
